Assays:
[1] = system: human heparinized whole blood (erythrocytes); experiment: In vitro hemolysis test with co-solvents (study procedure, Drabkin's solution, absorbance 540 nm); conditions: for max. well tolerated co-solvent concent: co-solvent diluted with NaCl 0.9%, intersection of fitted sigmoidal curve with 5% hemolysis line, 10 min at 37° C.; for hemolysis value: human, 10 min, 10 % v/v
Method: A test was developed to determine the hemolytic activity of a pharmaceutical formulation. The test utilized fresh anticoagulated human blood. In general, the test was performed by diluting the pharmaceutical product with fresh saline, then mixing with an aliquot of fresh human whole blood. After incubating at 37° C., the test solutions were centrifuged, and the concentration of hemoglobin was measured in the supernatant using spectroscopic techniques.
To determine the 100% hemolysis value, equal volumes of […] and blood were mixed, centrifuged, and mixed again. 30 μl was transferred to a plate, and 170 μl of Drabkin's reagent was added. The 100% hemolysis value was indicated as Value A.
To determine the 0% hemolysis value, equal volumes of saline and blood were mixed. The 0% hemolysis value is indicated as Value B.
The dilutions were performed in glass or plastic tubes with a diameter of approximately 12 mm and a length of approximately 100 mm.
400 μl of whole blood was added to each tube. The components were carefully homogenized. The tubes were incubated for 10 minutes at 37° C., homogenized again and then centrifuged for 10 minutes at 2500×g. The contents of the tube were mixed for Value A (100% hemolysis) and then transferred 3 times 30 μl of each tube of the supernatant to a 96-well plate (flat bottom) and 170 μl of Drabkin's solution was added to each well containing solution. The plate was read in a plate reader at wavelength 540 nm.
For evaluation of the test results from the plate reader reading at wavelength 540 nm, the mean values of the triplicates were calculated. The percent hemolytic activity was determined according to the following formula:
wherein: % HA=percent hemolytic activity; A=Value for 100% HA; B=Value for 0% HA; C=Value for tested solution.
Dilutions of the co-solvents were prepared in tubes. An equal volume of human heparinized whole blood was added and homogenized. The test co-solvents were diluted in sterile, pyrogen-free water and sterile, pyrogen-free saline.
The following equation was used to obtain a curve fitting of the hemolysis data: […]
The maximal well tolerated co-solvent concentration was obtained by calculating the intersection of the sigmoidal curves with the horizontal line at hemolysis, i.e., 5%.

[2] = Tonicity of 10% co-solvent solutions; type: physicochemical; conditions: solutions with 10% co-solvent

Polyethylene glycol 400 [PEG 400]
co-solvent concentration at which significant (>10%) hemolysis is induced [1]: 50-60%
effect of switch from water for injection to saline as diluent on hemolytic behavior [1]: did not drastically modify the hemolytic behavior
tonicity of the solution [2]: close to isotonicity

Polyethylene glycol 300 [PEG 300]
co-solvent concentration at which significant (>10%) hemolysis is induced [1]: 60-70%
effect of switch from water for injection to saline as diluent on hemolytic behavior [1]: did not drastically modify the hemolytic behavior
tonicity of the solution [2]: isotonic

CC(O)CO (stereo not drawn) [PG, Propylene glycol]
hemolysis at the lowest tested co-solvent concentration (in words) [1]: high hemolysis
max. well tolerated co-solvent concent [1]: 48%
hemolysis value [1]: ~100%
tonicity of the solution [2]: clearly hypertonic

CCO [Ethanol]
flocculation in hemolysis test [1]: significant flocculation
hemolysis at the lowest tested co-solvent concentration (in words) [1]: high hemolysis
max. well tolerated co-solvent concent [1]: 29%
hemolysis value [1]: ~100%
tonicity of the solution [2]: clearly hypertonic
